# According to patent publication US20130345163A1, “BIOLOGICAL MARKER FOR INFLAMMATION” (CAN-FITE BIOPHARMA LTD., priority 2004, published 2013):
# How the values were obtained:
# [1] = test system: Adjuvant Induced Arthritis (AIA) rats; experiment: Adjuvant induced arthritis (AIA) model in rats, clinical disease activity score; format: in vivo, rat; conditions: CF101 10 μg/kg orally twice daily from day 14 after immunization, MTX 1.5 mg/kg intraperitoneally every 3 days from day 14, vs vehicle
# Method: (§1) Female Lewis rats, aged 8-12 weeks were obtained from Harlan Laboratories (Jerusalem, Israel). Rats were maintained on a standardized pelleted diet and supplied with tap water. Experiments were performed in accordance with the guidelines established by the Institutional Animal Care and Use Committee at Can-Fite BioPharma, Petah Tikva, Israel. The rats were injected subcutaneously (SC) at the tail base with 100 μl of suspension composed of incomplete Freund's adjuvant (IFA) with 10 mg/ml heat killed Mycobacterium tuberculosis, (Mt) H37Ra, (Difco, Detroit, USA). Each group contained 10 animals.
# (§2) Treatment with IB-MECA (10 μg/kg) was initiated on day 14 after vaccination and was orally administered by gavage, twice daily. Another group was treated with Methotrexate (MTX) (1.5 mg/kg) intraperitoneally every 3 days, starting on day 14th after vaccination. The control group in each experiment received vehicle only (DMSO in a dilution corresponding to that of the drugs).
# Clinical Disease Activity Score was assessed as follows: the animals were inspected every second day for clinical arthritis. […] The clinical score was calculated by adding the four individual legs' score. The inflammatory intensity was also determined in accordance with the increase in the rat hind paw's diameter, measured by caliper (Mitotoyo, Tokyo, Japan).
# [2] = test system: A3AR; experiment: A3AR protein expression level by Western blot in tissues of AIA rats; format: in vivo, rat
# Method: as §1, §2
# The hind paws were dissected above the ankle joint. The bony tissue was broken into pieces, snap frozen in liquid nitrogen and stored at −80° C. until use. To prepare a protein extract, RIPA buffer (containing 150 mM NaCl, 50 mM Tris, 1% NP40, 0.5% Deoxycholate and 0.1% SDS) was added to the paw tissue (4 ml/gr of tissue). The mixture was homogenized on ice with a polytron and centrifuged.
# Synovial tissue was removed and synovial cells were separated by incubating the tissue in RPMI containing 1 mg/ml Collagenase IV and 0.1 mg/ml DNase with a vigorous shaking (200 rpm) at 37° C. for 30 min. The supernatant containing the synovial cells was collected and the undigested tissue was re-extracted. The supernatants from both extractions were combined and cells were washed with PBS. Protein extracts were prepared. […]
# Western blot analysis (WB) of synovial, paw, spleen and lymph nodes were carried out according to the following protocol. […] Protein concentrations were determined using the Bio-Rad protein assay dye reagent. […] Bands were recorded using BCIP/NBT color development kit (Promega, Madison, Wis., USA).
# [3] = test system: RA patients; experiment: Clinical study of CF101 in RA patients, ACR response; format: in vivo, human
# Method: Blood was withdrawn from RA patients who were enrolled in a clinical study sponsored by Can-Fite BioPharma, in which the effect of CF101, a clinical grade IB-MECA, on arthritic patients was evaluated. The patients randomly received 0.1, 1.0 or 4.0 mg of CF101 twice daily. Blood was withdrawn at 2 time points: (a) after a washout period of 4-6 weeks from a previous treatment and before CF101 treatment was initiated—this was considered as baseline level; (b) after 3 months of treatment with CF101. Peripheral blood mononuclear cells were separated and protein was extracted as described above. In addition, C reactive protein (CRP) values, the number of tender and swollen joints, the physicians global assessment, the patient own assessment, the pain score and the disability score were recorded and the ACR score was calculated for each patient (ACR is a score that is calculated according to criteria established by the American College of Rheumatology, based on the aforementioned measures, to evaluate the effectiveness of drugs for treatment of RA; ACR 20, ACR 50 and ACR 70 respectively represent a 20%, 50% and 70% improvement in this score).
# [4] = test system: A3AR; experiment: A3AR level in peripheral blood mononuclear cells of RA patients by Western blot; format: in vivo, human
# Method: Protein concentrations were determined using the Bio-Rad protein assay dye reagent. Equal amounts of the sample (50 μg) were separated by SDS-PAGE, using 12% polyacrylamide gels. […] Bands were recorded using BCIP/NBT color development kit (Promega, Madison, Wis., USA).
# [5] = out of 17 RA patients, 3 months of CF101
Structure (SMILES),disease severity evaluated by the arthritis clinical score [1],"A3AR expression level in peripheral hematopoietic tissues (spleen and lymph node) ([2]; AIA rats treated with IB-MECA, low in naïve animals, high in AIA)","A3AR protein expression level in inflammatory tissues (paw & synovial) ([2]; AIA rats, upon IB-MECA treatment vs untreated AIA)","responders with ACR 20 only response [3, 5] [patients]","responders with ACR 50 response [3, 5] [patients]","responders with ACR 70 response [3, 5] [patients]","non-responders (not even an ACR 20 response) ([3]; out of 17 RA patients, 3 months of CF101 0.1, 1.0 or 4.0 mg twice daily) [patients]","other parameters, particularly number of swollen and tender joints, in patient no. 1517 ([3]; single RA patient with no ACR response (CRP change below 0%), 3 months of CF101)",A3AR level in PBMNC of non-responders ([4]; after 3 months CF101 treatment vs baseline),A3AR level in PBMNC of ACR 50 and ACR 70 responders ([4]; after 3 months CF101 treatment vs baseline (initial high level)),"A3AR expression profile in lymph nodes (LN) ([2]; AIA rats treated with MTX, compared with pattern seen with IB-MECA)","level of the A3AR in PBMNCs ([4]; 4 RA patients, prior to vs after onset of treatment with methotrexate)"
"CNC(=O)[C@H]1O[C@@H](n2cnc3c(NCc4cccc(I)c4)ncnc32)[C@H](O)[C@@H]1O [CF101, N^6-(3-iodobenzyl)-adenosine-5′-N-methyluronamide]",significant decrease,low expression,down-regulated,4,5,3,5,very significant improvement,essentially no change,reduced,–,–
"CN(Cc1cnc2nc(N)nc(N)c2n1)c1ccc(C(=O)N[C@@H](CCC(=O)O)C(=O)O)cc1 [methotrexate, reference compound]",significant decrease,–,–,–,–,–,–,–,–,–,a similar A3AR expression profile was observed,increase
